Test results from ChEMBL document CHEMBL1158525, “New heteroaryl nitrones with spin trap properties: Identification of a 4-furoxanyl derivative with excellent properties to be used in biological systems” (Bioorg Med Chem, 2010).
The source made the active and inactive calls.

Assays:
Type in all cases: functional
Details in all cases: Microsome
Trypanosoma cruzi [1] = assay: Antioxidant activity in Trypanosoma cruzi microsomes assessed as inhibition of TBfx2-induced free radicals generation by EPR-based spin trap technique
Trypanosoma cruzi [2] = assay: Antioxidant activity in Trypanosoma cruzi microsomes assessed as inhibition of PtCl2(NF)-induced free radicals generation by EPR-based spin trap technique
Trypanosoma cruzi [3] = assay: Antioxidant activity in Trypanosoma cruzi microsomes assessed as inhibition of TBfx1-induced free radicals generation by EPR-based spin trap technique
Trypanosoma cruzi [4] = assay: Antioxidant activity in Trypanosoma cruzi microsomes assessed as inhibition of NF-induced free radicals generation by EPR-based spin trap technique

Measured: Activity

Cc1c(/C=[N+](\[O-])C(C)(C)C)no[n+]1[O-]
active: all assays above
